What was measured:
[1] = TEMPO scavenging by differential pulse voltammetry; settings: 2 mM TEMPO, one hour incubation, 0.1 M HClO4, DPV
Method in brief: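 Scavenging of the stable nitroxide radical TEMPO by the compounds, measured as antioxidant activity by differential pulse voltammetry.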

Fe^2+ chelation assay = assay type: biochemical
[2] = Ferric ions (Fe^3+) reducing antioxidant power by cyclic voltammetry
Procedure: (§1) The evaluated compounds’ stock solutions used were prepared at a concentration of 5 mM. To test their redox properties, dilutions of 0.5 mM and 2 mM were prepared in 0.1 M HClO4 electrolyte (pH = 1.2). Screen-printed electrodes (SPEs; Metrohm DropSens, Oviedo, Spain) (planar electrodes) with graphite and gold working electrodes were used. Cyclic voltammetry (CV) and differential pulse voltammetry (DPV) were the electrochemical methods applied. The experimental conditions for each test are mentioned near the corresponding data (Appendix A).
The antioxidant properties were evaluated in terms of their activity against some free radicals, and other compounds reported in the literature, relevant for this purpose, such as: • ferric ions (Fe^3+)—used to test the reduction of the antioxidant character of the compounds; • DPPH˙ free radical– used to test the scavenging effect of the compounds on this radical; • hydrogen peroxide (H2O2)—used to test the scavenging effect of the synthesized molecules on this compound; • 2,2,6,6-tetramethylpiperidinyl-1-oxy (TEMPO)—used to test the scavenging effect of the synthesized molecules on this compound.
This method is based on the evaluation of the influence of the compound measured by the direct reduction of Fe[(CN)6]^3− to […]. This assay is based on the reduction of Fe^3+ to Fe^2+ due to the action of antioxidants. Based on the electrochemical behavior of the studied compounds, the interaction of Fe^3+ was followed by cyclic voltammetry (CV) via the possible changes of redox peaks characteristic for Fe^3+/Fe^2+ transition after the interaction with antioxidants (if any).
From the voltammogram of potassium ferricyanide it can be observed that the one-electron transfer process Fe^3+/Fe^2+ occurs at 0.247 V/ 0.150 V in acidic media (red) (Figure A1; Table A1).
Each compound presents its characteristic peaks (blue line in each figure).

[3] = NO˙ radical scavenging assay (Griess reaction); assay type: biochemical; settings: 100 µL of test solution 1 mg/mL in DMSO, 150 min, pH 7.4
Method in brief: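 Sodium nitroprusside solution (10 mM) was incubated 150 min at room temperature in PBS pH 7.4 with test solution (1 mg/mL DMSO stock). Nitrite was quantified by Griess reaction (sulfanilic acid, then naphthylethylenediamine, 30 min) at 546 nm. Percent scavenging was taken relative to control absorbance.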

HaCaT cells = HaCaT cells integrity, acridine orange staining; assay type: cell-based, human; settings: treatment at IC50 concentration for 24 h
Procedure: The cells were left to attach to 10 mm Ø glass slides for 24 h, at a confluence of 3 × 10^4 cells/glass slide. The slides were incubated for 10 min in acridine orange 1 µM in PBS 0.01M, and then the slides were investigated with an epifluorescence microscope Optika 510LD1 with 5 MP CCD cameras at 525 nm (green filter).

[4] = DPPH˙ radical scavenging assay; assay type: biochemical; settings: for IC50: DPPH˙ scavenging
[5] = Cyclic voltammetry of the compounds on graphite-based SPE; assay type: physicochemical; settings: CV, 0.1 M HClO4, graphite-based SPE
Procedure: as §1
In Figure 2, the cyclic voltammograms (CVs) for each of the compounds considered in this study, compared individually with the voltammogram obtained in the electrolyte (0.1 M HClO4), are presented. Thus, the oxidation/reduction peaks corresponding to the electrochemical transformations suffered by each compound can be observed in the potential range considered, in an acidic environment (low pH). From Figure 3, where the voltammograms of all eight compounds were presented together, a similarity is observed between 8a and 8b, and among the other compounds, whereas 5a and 5b can be noted as having the highest oxidation signals.

[6] = compound + Fe^3+/Fe^2+, 1st Ered
[7] = compound + Fe^3+/Fe^2+, 1st Ired
[8] = compound + Fe^3+/Fe^2+, 2nd Eox
[9] = compound + Fe^3+/Fe^2+, 2nd Iox column
[10] = compound + Fe^3+/Fe^2+, 3rd Iox column
[11] = compound alone 0.5 mM in 0.1 M HClO4, 2nd Iox column
[12] = compound alone 0.5 mM in 0.1 M HClO4, 3rd Iox column
[13] = compound alone 0.5 mM in 0.1 M HClO4, 3rd Eox column

## Br.C/C(=N\Nc1nc(-c2ccc(O)c(C(N)=O)c2)cs1)c1ccc(O)cc1O [Compound 7a, (E)-1-(4-(3-carbamoyl-4-hydroxyphenyl)thiazol-2-yl)-2-(1-(2,4-dihydroxyphenyl)ethylidene)hydrazin-1-ium bromide]
[1]
  oxidation signal for TEMPO after incubation with the compound: does not decrease
Fe^2+ chelation assay; 50 µg/mL
  Chelation Capacity (%), ferrous ions: 0.07%
Fe^2+ chelation assay; 100 µg/mL
  Chelation Capacity (%), ferrous ions: 1.73%
Fe^2+ chelation assay; 150 µg/mL
  Chelation Capacity (%), ferrous ions: 2.29%
Fe^2+ chelation assay; 200 µg/mL
  Chelation Capacity (%), ferrous ions: 3.88%
[2]; [6]
  Ered (V): 0.164 V
[2]; [7]
  Ired (μA): −7.23 μA
[2]; [8]
  Eox (V): 0.23 V
[2]; [9]
  Iox (μA): 4.35 μA
[2]; [10]
  Iox (μA): 1.75 μA
[2]; [11]
  Iox (μA): 4.37 μA
[2]; [12]
  Iox (μA): 1.95 μA
[3]
  % of NO˙ Scavenged: 21.44%
HaCaT cells
  morphological effect on HaCaT cells, acridine orange staining: induced a necroptotic aspect of the cells
[4]; 1 µg/mL
  % of DPPH˙ Scavenged: 20.01%
[4]; 1.5 µg/mL
  % of DPPH˙ Scavenged: 22.10%
[4]; 2 µg/mL
  % of DPPH˙ Scavenged: 26.75%
[4]; 3 µg/mL
  % of DPPH˙ Scavenged: 32.43%
[4]; 5 µg/mL
  % of DPPH˙ Scavenged: 49.27%
[4]
  IC50: 5.19 µg/mL
[5]; 1st oxidation peak
  Eox (V): 0.269 V
  Iox (μA): 14.75 μA
[5]; 2nd oxidation peak
  Eox (V): 0.374 V
  Iox (μA): 2.06 μA
[5]; 2nd reduction peak
  Ered (V): 0.205 V
  Ired (μA): −4.65 μA
[5]; 3rd oxidation peak
  Eox (V): 0.561 V
  Iox (μA): 2.69 μA

## C/C(=N\Nc1nc(-c2ccc(O)c(O)c2)cs1)c1ccc(O)cc1O.Cl [Compound 8a, (E)-2-(1-(2,4-dihydroxyphenyl)ethylidene)-1-(4-(3,4-dihydroxyphenyl)thiazol-2-yl)hydrazin-1-ium chloride]
[1]
  oxidation signal for TEMPO after incubation with the compound: both the signal shift to higher oxidation potentials and its decrease
Fe^2+ chelation assay; 50 µg/mL
  Chelation Capacity (%), ferrous ions: 7.73%
Fe^2+ chelation assay; 100 µg/mL
  Chelation Capacity (%), ferrous ions: 12.28%
Fe^2+ chelation assay; 150 µg/mL
  Chelation Capacity (%), ferrous ions: 17.60%
Fe^2+ chelation assay; 200 µg/mL
  Chelation Capacity (%), ferrous ions: 22.64%
[2]; 0.5 mM ferricyanide + 0.5 mM compound
  scavenging effect on ferric ion: highest scavenging effect
[2]; compound 0.5 mM + Fe^3+/Fe^2+ (0.5 mM potassium ferricyanide), 1st Eox column
  Eox (V): 0.072 V
[2]; compound 0.5 mM + Fe^3+/Fe^2+ (0.5 mM potassium ferricyanide), 1st Iox column
  Iox (μA): 0.17 μA
[2]; [6]
  Ered (V): 0.054 V
[2]; [7]
  Ired (μA): −8.37 μA
[2]; [8]
  Eox (V): 0.186 V
[2]; [9]
  Iox (μA): 17.73 μA
[2]; compound + Fe^3+/Fe^2+, 4th Eox column
  Eox (V): 0.452 V
[2]; compound + Fe^3+/Fe^2+, 4th Iox column
  Iox (μA): 12.93 μA
[2]; compound + Fe^3+/Fe^2+, 5th Eox
  Eox (V): 0.87 V
[2]; compound + Fe^3+/Fe^2+, 5th Iox column
  Iox (μA): 18.64 μA
[2]; compound alone 0.5 mM in 0.1 M HClO4, 2nd Eox
  Eox (V): 0.195 V
[2]; compound alone 0.5 mM in 0.1 M HClO4, 2nd Ered column
  Ered (V): 0.296 V
[2]; [11]
  Iox (μA): 2.32 μA
[2]; compound alone 0.5 mM in 0.1 M HClO4, 2nd Ired
  Ired (μA): −5.09 μA
[2]; [13]
  Eox (V): 0.330 V
[2]; [12]
  Iox (μA): 7.42 μA
[2]; compound alone 0.5 mM in 0.1 M HClO4, 4th Eox column
  Eox (V): 0.460 V
[2]; compound alone 0.5 mM in 0.1 M HClO4, 4th Iox column
  Iox (μA): 7.70 μA
[2]; compound alone 0.5 mM in 0.1 M HClO4, 5th Eox
  Eox (V): 0.985 V
[2]; compound alone 0.5 mM in 0.1 M HClO4, 5th Iox column
  Iox (μA): 3.45 μA
[3]
  % of NO˙ Scavenged: 32.72%
HaCaT cells
  morphological effect on HaCaT cells, acridine orange staining: induced nuclear fragmentation
[4]; 1 µg/mL
  % of DPPH˙ Scavenged: 25.05%
[4]; 1.5 µg/mL
  % of DPPH˙ Scavenged: 31.43%
[4]; 2 µg/mL
  % of DPPH˙ Scavenged: 36.02%
[4]; 3 µg/mL
  % of DPPH˙ Scavenged: 47.13%
[4]; 5 µg/mL
  % of DPPH˙ Scavenged: 68.90%
[4]
  IC50: 3.26 µg/mL
[5]; 1st oxidation peak
  Eox (V): 0.174 V
  Iox (μA): 21.51 μA
[5]; 2nd oxidation peak
  Eox (V): 0.386 V
  Iox (μA): 37.08 μA
[5]; 2nd reduction peak
  Ered (V): 0.101 V
  Ired (μA): −4.79 μA
[5]; 3rd oxidation peak
  Eox (V): 0.520 V
  Iox (μA): 4.87 μA
[5]; 3rd reduction peak
  Ered (V): 0.335 V
  Ired (μA): −38.91 μA

## Br.C/C(=N\Nc1nc(-c2ccccc2)cs1)c1ccc(O)cc1O [Compound 6a, (E)-2-(1-(2,4-dihydroxyphenyl)ethylidene)-1-(4-phenylthiazol-2-yl)hydrazin-1-ium bromide]
[1]
  oxidation signal for TEMPO after incubation with the compound: does not decrease
Fe^2+ chelation assay; 50 µg/mL
  Chelation Capacity (%), ferrous ions: 0.07%
Fe^2+ chelation assay; 100 µg/mL
  Chelation Capacity (%), ferrous ions: 7.14%
Fe^2+ chelation assay; 150 µg/mL
  Chelation Capacity (%), ferrous ions: 14.50%
Fe^2+ chelation assay; 200 µg/mL
  Chelation Capacity (%), ferrous ions: 25.03%
[2]; [6]
  Ered (V): 0.142 V
[2]; [7]
  Ired (μA): −5.88 μA
[2]; [8]
  Eox (V): 0.223 V
[2]; [9]
  Iox (μA): 2.74 μA
[2]; compound + Fe^3+/Fe^2+, 3rd Eox column
  Eox (V): 0.424 V
[2]; [10]
  Iox (μA): 3.82 μA
[2]; [11]
  Iox (μA): 3.04 μA
[2]; [13]
  Eox (V): 0.586 V
[2]; [12]
  Iox (μA): 6.79 μA
[3]
  % of NO˙ Scavenged: 20.58%
[4]; 1 µg/mL
  % of DPPH˙ Scavenged: 5.90%
[4]; 1.5 µg/mL
  % of DPPH˙ Scavenged: 9.07%
[4]; 2 µg/mL
  % of DPPH˙ Scavenged: 12.87%
[4]; 3 µg/mL
  % of DPPH˙ Scavenged: 19.88%
[4]; 5 µg/mL
  % of DPPH˙ Scavenged: 38.13%
[4]
  IC50: 6.56 µg/mL
[5]; 1st oxidation peak
  Eox (V): 0.298 V
  Iox (μA): 10.73 μA
[5]; 2nd oxidation peak
  Eox (V): 0.418 V
  Iox (μA): 22.48 μA
[5]; 2nd reduction peak
  Ered (V): 0.181 V
  Ired (μA): −6.84 μA
[5]; 3rd oxidation peak
  Eox (V): 0.621 V
  Iox (μA): 15.03 μA
[5]; 3rd reduction peak
  Ered (V): 0.379 V
  Ired (μA): −1.19 μA

Reference: paper PMC8615111, “Phenolic Thiazoles with Antioxidant and Antiradical Activity. Synthesis, In Vitro Evaluation, Toxicity, Electrochemical Behavior, Quantum Studies and Antimicrobial Screening” (Antioxidants, 2021)
